Drawing on patent publication US10231453B2, “5-substituted imidazole derivatives” (BAYER CROPSCIENCE AKTIENGESELLSCHAFT, priority 2015, dated 2019), this text covers chromatographic logP, pest or weed control and LogP for 51 molecules.

Marks after values point to notes of the source that are not given here.

The nature of data set [1]: Measurement of LogP values by HPLC on reversed phase columns (EEC directive 79/831 Annex V.A8). It is filed as physicochemical. The settings on record: for chromatographic logP: method [a]: LC-UV, acidic range, 0.1% formic acid in water and acetonitrile as eluent. As to the method: Measurement of Log P values was performed as outlined above.
The subject of data set [2] is Puccinia recondita. Description: In vivo preventive test on Puccinia recondita (brown rust on wheat), Examples C and R3. Conditions: Puccinia recondita, 264 h; 500 ppm of active ingredient; wheat, preventive spray, evaluated 11 days after inoculation; read-out: efficacy.
Data set [3] deals with Uromyces appendiculatus. The experiment in a line: In vivo preventive test on Uromyces appendiculatus (bean rust), Examples G and R7. The settings on record: 264 h, 500 ppm of active ingredient, bean, preventive spray, evaluated 11 days after inoculation, read-out: efficacy.
The subject of data set [4] is Septoria tritici. The experiment in a line: In vivo preventive test on Septoria tritici (leaf spot on wheat), Examples E, Q3 and R5. Conditions: Zymoseptoria tritici, 576 h, 500 ppm of active ingredient; wheat, preventive spray, evaluated 24 days after inoculation; read-out: efficacy.
Data set [5] concerns Sphaerotheca fuliginea. Description: In vivo preventive test on Sphaerotheca fuliginea (powdery mildew on cucurbits), Examples F and R6. The settings on record: Podosphaera fuliginea, 360 h; 500 ppm of active ingredient; gherkin, preventive spray, evaluated 15 days after inoculation; read-out: efficacy.
The subject of data set [6] is Pyrenophora teres. Description: In vivo preventive test on Pyrenophora teres (net blotch on barley), Examples D, Q2 and R4. The settings on record: Pyrenophora teres, 336 h, read-out: Efficacy in %.
The mark [7] stands for this setting: Table 2, compounds of formula (XVII).

The chromatographic logP is a lipophilicity value derived from retention on a column. The low end stands for lower lipophilicity, the high end for higher lipophilicity.

In data set [1] (Table 1), `Cc1cncn1CC(O)(Cc1cccnc1Cl)C1(Cl)CC1` (centres unmarked) [Example I-10] came in with a chromatographic logP of 1.22. Moreover, the pest or weed control at 500 ppm in data set [2] was in the range of 80 to 89%; in data set [3], 90 to 100%.
`N#Cc1cncn1CC(O)(C(F)c1ccccc1Cl)C1(Cl)CC1` (centres unmarked) [Example I-24] displayed a chromatographic logP in data set [1] (Table 1) of 2.82. The pest or weed control at 500 ppm was in the range of 80 to 89% in data set [2], 90 to 100% in data set [4], 90 to 100% in data set [5] and 90 to 100% in data set [3].
In data set [1] (Table 1), `OC(Cn1cncc1Cl)(C(F)c1ccccc1F)C1(Cl)CC1` (centres unmarked) [Example I-28] showed a chromatographic logP of 2.01. In addition, the pest or weed control at 500 ppm in data set [2] was 80 to 89%; in data set [4], 80 to 89%; in data set [5] it was 90 to 100%; in data set [3], 70 to 79%.
For `COc1cncn1CC(O)(Cc1ccccc1F)C1(Cl)CC1` (centres unmarked) [Example I-35], the chromatographic logP in data set [1] (Table 1) came out at 1.67. The pest or weed control at 500 ppm in data set [4] was 90 to 100%.
`OC(Cc1ccccc1F)(Cn1cncc1C1CC1)C1(Cl)CC1` (centres unmarked) [Example I-37] gave a chromatographic logP in data set [1] (Table 1) of 1.86. In addition, the pest or weed control at 500 ppm was 80 to 89% in data set [2] and 90 to 100% in data set [4].
On to `N#Cc1cncn1CC(O)(Cc1cc(Br)ncc1Br)C1(Cl)CC1` (centres unmarked) [Example I-47], for which, in data set [1] (Table 1), the chromatographic logP was 2.73. Besides, the pest or weed control at 500 ppm in data set [2] fell in the range of 80 to 89%; in data set [5], 90 to 100%; in data set [3], 90 to 100%.
`N#Cc1cncn1CC(O)(Cc1ccncc1Cl)C1(Cl)CC1` (centres unmarked) [Example I-57]: in data set [1] (Table 1), the chromatographic logP was found to be 1.88. In addition, the pest or weed control at 500 ppm in data set [2], in data set [4], in data set [5] and in data set [3] was 90 to 100% in each case.
As for `N#Cc1cncn1CC(O)(Cc1cc(Cl)cc(Cl)c1)C1(Cl)CC1` (centres unmarked) [Example I-58], the chromatographic logP in data set [1] (Table 1) was determined as 3.55. Besides, the pest or weed control at 500 ppm was 80 to 89% in data set [2], 80 to 89% in data set [4], 90 to 100% in data set [5] and 90 to 100% in data set [3].
Turning to `OC(Cc1ccnc(Cl)c1Cl)(Cn1cncc1Cl)C1(Cl)CC1` (centres unmarked) [Example I-67], in data set [1] (Table 1), the chromatographic logP was determined as 2.08. Moreover, the pest or weed control at 500 ppm was 80 to 89% in data set [2], 90 to 100% in data set [5] and 90 to 100% in data set [3].
In the case of `Cc1ccc(CC(O)(Cn2cncc2Cl)C2(Cl)CC2)c(C)c1` (centres unmarked) [Example I-68], the chromatographic logP in data set [1] (Table 1) was determined as 2.69. Moreover, the pest or weed control at 500 ppm in data set [2] was 70 to 79%; in data set [3], 90 to 100%.
With `OC(Cc1cc(Cl)nc(Cl)c1)(Cn1cncc1Cl)C1(Cl)CC1` (centres unmarked) [Example I-74], in data set [1] (Table 1), the chromatographic logP is 2.23. Besides, the pest or weed control at 500 ppm in data set [4], in data set [5] and in data set [3] was 90 to 100% each time.
In data set [1] (Table 1), `Nc1cncn1CC(O)(Cc1ccccc1Cl)C1(Cl)CC1` (centres unmarked) [Example I-78] had a chromatographic logP of 1.5. Further, the pest or weed control at 500 ppm in data set [4] and in data set [5] was 80 to 89% in each case.
For the molecule `N#Cc1cncn1CC(O)(Cc1ccc(F)cc1)C1(F)CC1` (centres unmarked) [Example I-100], the chromatographic logP in data set [1] (Table 1) was 2.35.
For the molecule `CC1(C(O)(Cc2ccc(F)c(F)c2F)Cn2cncc2C#N)CC1` (centres unmarked) [Example I-102], the chromatographic logP in data set [1] (Table 1) came out at 2.82.
As to `N#Cc1cncn1CC(O)(Cc1ccc(F)c(F)c1F)C1CCC1` (centres unmarked) [Example I-104], the chromatographic logP in data set [1] (Table 1) turned out to be 2.78. The pest or weed control at 500 ppm in data set [2], in data set [4], in data set [5] and in data set [3] was 90 to 100% in each case.
Take `CC(C)C(O)(Cc1ccc(F)c(F)c1F)Cn1cncc1C#N` (centres unmarked) [Example I-105]: the chromatographic logP in data set [1] (Table 1) is 2.78. The figures for the pest or weed control at 500 ppm in data set [2], in data set [4] and in data set [5] were 70 to 79%, 70 to 79% and 90 to 100%, respectively.
Turning to `N#Cc1cncn1CC(O)(Cc1ccc(F)c(F)c1F)CC1CC1` (centres unmarked) [Example I-106], in data set [1] (Table 1), the chromatographic logP is 2.73. Also, the pest or weed control at 500 ppm in data set [2] was in the range of 80 to 89%; in data set [4], 90 to 100%; in data set [5], 90 to 100%; in data set [3], 90 to 100%.
`NC(=O)c1cncn1CC(O)(Cc1ccc(Cl)cc1F)C1CC1` (centres unmarked) [Example I-116]: the chromatographic logP in data set [1] (Table 1) was 1.49. In addition, the pest or weed control at 500 ppm in data set [4] and in data set [5] was 90 to 100% in each case.
As for `N#Cc1cncn1CC(O)(Cc1ccc(Cl)cc1F)C1CCC1` (centres unmarked) [Example I-117], the chromatographic logP in data set [1] (Table 1) is 3.31. Also, the pest or weed control at 500 ppm in data set [2], in data set [4], in data set [5] and in data set [3] was 90 to 100% each time.
In data set [1] (Table 1), `CCOC(Cc1ccc(Cl)cc1F)(Cn1cncc1Cl)C1(Cl)CC1` (centres unmarked) [Example I-122] yielded a chromatographic logP of 3.1. In addition, the pest or weed control at 500 ppm in data set [2] was in the range of 80 to 89%; in data set [4] it was 90 to 100%; in data set [5], 90 to 100%; in data set [3] it was 90 to 100%.
`C=CCOC(Cc1ccc(Cl)cc1F)(Cn1cncc1Cl)C1(Cl)CC1` (centres unmarked) [Example I-123]: in data set [1] (Table 1), the chromatographic logP turned out to be 3.31. Moreover, the pest or weed control at 500 ppm is 80 to 89% in data set [2], 90 to 100% in data set [4], 90 to 100% in data set [5] and 80 to 89% in data set [3].
Regarding `CCOC(=O)c1cncn1CC(O)(Cc1ccccc1F)C1(Cl)CC1` (centres unmarked) [Example I-135], the chromatographic logP in data set [1] (Table 1) amounted to 2.73.
Consider `N#Cc1cncn1CC(O)(Cc1ccccc1F)CC1CC1` (centres unmarked) [Example I-141], for which the chromatographic logP in data set [1] (Table 1) amounted to 2.45. Moreover, the pest or weed control at 500 ppm in data set [2], in data set [4], in data set [5] and in data set [3] was 90 to 100% throughout.
For the molecule `N#Cc1cncn1CC(O)(Cc1cccc(Cl)c1F)C1(Cl)CC1` (centres unmarked) [Example I-145], in data set [1] (Table 1), the chromatographic logP was 3.02.
Take `N#Cc1cncn1CC(O)(Cc1ccc(F)cc1)C1(Cl)CCC1` (centres unmarked) [Example I-159]: the chromatographic logP in data set [1] (Table 1) stood at 2.98.
For the molecule `N#Cc1cncn1CC(O)(Cc1ccc(F)cc1)C1CCC1` (centres unmarked) [Example I-160], the chromatographic logP in data set [1] (Table 1) was determined as 2.56.
For `N#Cc1cncn1CC(O)(Cc1ccc(F)cc1)C1CCCC1` (centres unmarked) [Example I-161], the chromatographic logP in data set [1] (Table 1) stood at 2.82.
`CC(C)C(O)(Cc1ccc(F)cc1)Cn1cncc1C#N` (centres unmarked) [Example I-162]: in data set [1] (Table 1), the chromatographic logP was 2.44.
Still for that read-out and setting: to `N#Cc1cncn1CC(O)(Cc1ccncc1F)C1(Cl)CC1` (centres unmarked) [Example I-163] belongs 1.62; to `N#Cc1cncn1CC(O)(Cc1ccnnc1Cl)C1(Cl)CC1` (centres unmarked) [Example I-168], 1.59.
On to `O=C(Cc1ccccc1)c1cncn1CC(O)(Cc1ccccc1)C1(Cl)CC1` (centres unmarked) [Example I-169], for which, in data set [1] (Table 1), the chromatographic logP came to 3.56. Moreover, the pest or weed control at 500 ppm in data set [2] lay within 70 to 79%; in data set [4], 70 to 79%; in data set [5] it was 90 to 100%; in data set [3], 70 to 79%.
Molecule `O=C(Cn1cncc1Cl)C1(Cl)CC1` [XVII-1, 1-(1-chlorocyclopropyl)-2-(5-chloro-1H-imidazol-1-yl)ethanone] yielded a chromatographic logP in data set [1] (setting [7]) of 0.75.
Still for that read-out and setting: to `N#Cc1cncn1CC(=O)C1(Cl)CC1` [XVII-2, 1-[2-(1-chlorocyclopropyl)-2-oxoethyl]-1H-imidazole-5-carbonitrile] belongs 1.35; to `N#Cc1cncn1CC(=O)C1CC1` [XVII-3], 0.74.
The same measure, in the same setting: to `N#Cc1cncn1CC(=O)C1(F)CC1` [XVII-4] belongs 1.05; to `O=C(Cn1cncc1F)C1(Cl)CC1` [XVII-5], 0.32.
For the molecule `COC(=O)c1cncn1CC(=O)C1(Cl)CC1` [XVII-6], the chromatographic logP in data set [1] (setting [7]) was 1.2.
On the same count and under the same terms, to `CC(C)(C)C(=O)Cn1cncc1C#N` [XVII-7] belongs 1.47.
Regarding `CC(C)(Cl)C(=O)Cn1cncc1C#N` [XVII-8], the LogP in data set [1] was 1.65^[a].
In data set [1] (setting [7]), `N#Cc1cncn1CC(=O)C1(C#N)CC1` [XVII-9] yielded a chromatographic logP of 0.9.
The same measure, in the same setting: to `O=C(Cn1cncc1I)C1(Cl)CC1` [XVII-10] belongs 0.7.
In data set [1] (setting [7]), `CC(C)(F)C(=O)Cn1cncc1C#N` [XVII-11] gave a chromatographic logP of 1.31.
`N#Cc1cncn1CC(=O)CC1CC1` [XVII-12] gave a chromatographic logP in data set [1] (setting [7]) of 1.27.
Regarding `CC(C)(C)CC(=O)Cn1cncc1C#N` [XVII-13], in data set [1] (setting [7]), the chromatographic logP came out at 1.88.
Still for that read-out and setting: to `CC(C)C(=O)Cn1cncc1C#N` [XVII-14] belongs 1.14; to `N#Cc1cncn1CC(=O)C1CCCC1` [XVII-15], 1.57; to `N#Cc1cncn1CC(=O)C1(F)CCCC1` [XVII-16], 1.81.
`N#Cc1cncn1CC(=O)C1CCC1` [XVII-17]: the chromatographic logP in data set [1] (setting [7]) was determined as 1.26.
In data set [1] (setting [7]), `N#Cc1cncn1CC(=O)C1(Cl)CCC1` [XVII-18] had a chromatographic logP of 1.86.
For the molecule `CCCCC(=O)Cn1cncc1C#N` [XVII-19], the chromatographic logP in data set [1] (setting [7]) is 1.6.
In the case of `OC(Cc1ccccc1Cl)(Cn1cnc(Br)c1)C1(Cl)CC1` (centres unmarked) [drawing 106, reference compound], the pest or weed control at 100 ppm in data set [6] (Example R4, rate of application 100 ppm) came to 0%. In data set [6] (Example R4, rate of application 500 ppm), the pest or weed control at 500 ppm is 0%.
